We go through 1 compound from patent EP0897904B1, “Fungicidal 2-methoxybenzophenones” (BASF AKTIENGESELLSCHAFT, priority 1997, dated 1999).

What all share (type): in vivo
The subject of experiment [1] is Blumeria (Erysiphe) graminis DC. f.sp. tritici E. Marchal. Kind of experiment: Curative and residual control test, Wheat Powdery Mildew (WPM). Particulars: read-out: Disease control (% efficacy). An excerpt:
(§1) • (a) Wheat Powdery Mildew (WPM): HOST: Wheat (Triticum aestivum L.) variety Kanzler PATHOGEN: Blumeria (Erysiphe) graminis DC. f.sp. tritici E. Marchal • (b) Cucumber Powdery Mildew (QPM): HOST: Cucumber (Cucumis sativus L.) variety Bush pickle PATHOGEN: Erysiphe cichoracearum DC
(§2) This test procedure is for curative and residual control of powdery mildew diseases. • 1. Wheat seed (approximately 8-10/pot) or cucumber seed (1 seed / pot) is planted in 6 cm diameter plastic pots and maintained in the greenhouse. • 2. When the primary leaf (wheat) or the cotyledons (cucumber) is/are fully expanded, formulated test compounds are sprayed with a single nozzle overhead track sprayer at a rate of 200 l/ha. Plants are then allowed to air-dry. • 3. Inoculation precedes treatment by 2 or 3 days in the case of curative evaluations and follows treatment by 3 or 4 days in case of residual evaluations. For inoculation, plants are set up on greenhouse benches with bottom watering mats and inoculated by dusting them with conidia from powdery mildew infected plants (stock cultures at an age of 10-14 days). Between inoculation and treatment for curative evaluations and between treatment and inoculation for residual evaluations, plants are maintained in the greenhouse with bottom watering. • 4. Disease on the primary leaf (wheat) or on the cotyledons (cucumber) as percent leaf area with disease symptoms/signs is evaluated about 7 days after inoculation. In the case of wheat, the tips and bases of the leaves are excluded from the evaluation. Percent disease control is then calculated by the following formula: % disease control = 100 -(% infection in treated plants)/(% infection in untreated plants)x 100 [formula]
(§3) • 1. Technical compounds are formulated in a solvent/surfactant system consisting of 5% acetone and 0.05% Tween 20 in deionized water. Compounds are dissolved in acetone prior to addition of the water; the Tween 20 can be added through either the acetone or the water. Dilutions are made using the solvent/surfactant system. Formulated compounds are prepared using deionized water. • 2. Two kinds of controls are included: • Plants treated with the solvent/surfactant solution and inoculated (Solvent Blank). • Untreated plants which are inoculated (Inoculated Control).

Experiment [2] has the same test system. Nature of the experiment: Zero day protectant test, Wheat Powdery Mildew (WPM). Particulars: wheat variety Kanzler, 0 day protectant test, side-by-side, technical material in 0.5% acetone 0.05% Tween 20 water.
Excerpt: (§4) • (a) Wheat Powdery Mildew (WPM): HOST: Wheat (Triticum aestivum L.) variety Kanzler PATHOGEN: Blumeria (Erysiphe) graminis DC. f.sp. tritici E. Marchal • (b) Barley Powdery Mildew (BPM): HOST: Barley (Hordeum vulgare L.) variety Golden Promise PATHOGEN: Blumeria (Erysiphe) graminis DC. f.sp. hordei E. Marchal
(§5) This test is a zero day protectant test for control of wheat and barley powdery mildews. • 1. Wheat or barley seed (approximately 8-10/pot) is planted in 6 cm diameter plastic pots and maintained in the greenhouse. • 2. When the primary leaf is fully expanded, formulated test compounds are sprayed with a single nozzle overhead track sprayer at a rate of 200 l/ha. Plants are then allowed to air-dry. • 3. Inoculation follows about three hours after compound application. Plants are set up on greenhouse benches with bottom watering mats and inoculated by dusting them with conidia from powdery mildew infected plants (stock cultures at an age of 10-14 days). • 4. Disease on the primary leaf as percent leaf area with disease symptoms/signs is evaluated about 7 days after inoculation. The tips and bases of the leaves are excluded from the evaluation. Percent disease control is then calculated by the following formula: % disease control = 100 -(% infection in treated plants)/(% infection in untreated plants)x 100 [formula]
as §3, with “system. Test compounds are typically tested over a range of concentrations covering several orders of magnitude and then ED values are calculated for comparison of compounds.” for “system.”
(§6) Compounds applied as technical material formulated in 0.5% acetone 0.05% Tween 20 water

Experiment [3] relates to Erysiphe cichoracearum DC. Kind of experiment: Curative and residual control test, Cucumber Powdery Mildew (QPM). Particulars: Golovinomyces cichoracearum, 72 h, read-out: Disease control (% efficacy); for Emax at 12.5 ppm: QPM 3 da R (3 day residual), 12,5 ppm; for Emax at 125 ppm / Emax at 1250 ppm: QPM 3 da R (3 day residual).
Excerpt: as §1, §2, §3

In experiment [4] the test system is Blumeria (Erysiphe) graminis DC. f.sp. hordei E. Marchal. Nature of the experiment: Zero day protectant test, Barley Powdery Mildew (BPM). The settings on record: barley variety Golden Promise, 0 day protectant test, side-by-side, technical material in 0.5% acetone 0.05% Tween 20 water.
Excerpt: as §4, §5
as §3, with “system. Test compounds are typically tested over a range of concentrations covering several orders of magnitude and then ED values are calculated for comparison of compounds.” for “system.”
as §6

Where two headings read alike, the source gives them in different places.

On to `COc1cc(C)c(C(=O)c2c(C)cccc2OC)c(OC)c1OC` [Example 1, 6,6'-dimethyl-2,2',3',4'-tetramethoxy-benzophenone], for which the percent disease control at 12.5 ppm came to 69% in experiment [1] (48 h, WPM 2 da C (2 day curative), 12,5 ppm, Test A) and 90% in experiment [1] (72 h, WPM 3 da R (3 day residual), 12,5 ppm, Test A). Besides, the Emax at 12.5 ppm in experiment [1] (48 h, WPM 2 da C (2 day curative), 12,5 ppm, Test B) came out at 52%; in experiment [1] (72 h, WPM 3 da R (3 day residual), 12,5 ppm, Test B), 100%; in experiment [3] (Test A), 2%; in experiment [3] (Test B), 3%. Further, the percent disease control at 125 ppm in experiment [1] (48 h, WPM 2 da C (2 day curative), 125 ppm, Test A) worked out at 79%; in experiment [1] (72 h, WPM 3 da R (3 day residual), 125 ppm, Test A), 100%; in experiment [1] (72 h, WPM 3 da R (3 day residual), 125 ppm, Test B), 100%. Besides, the Emax at 125 ppm was 65% in experiment [1] (48 h, WPM 2 da C (2 day curative), 125 ppm, Test B); 5% in experiment [3] (Test A); 61% in experiment [3] (Test B). Besides, the percent disease control at 1250 ppm in experiment [1] (48 h, WPM 2 da C (2 day curative), 1250 ppm, Test A) came to 88%; in experiment [1] (72 h, WPM 3 da R (3 day residual), 1250 ppm, Test A), 100%; in experiment [1] (72 h, WPM 3 da R (3 day residual), 1250 ppm, Test B) it was 100%. Moreover, the Emax at 1250 ppm turned out to be 85% in experiment [1] (48 h, WPM 2 da C (2 day curative), 1250 ppm, Test B); 100% in experiment [3] (Test A); 100% in experiment [3] (Test B). Also, the “ED90 (ppm)” value in experiment [2] is given as 4 ppm; in experiment [4] it was 6 ppm.
